According to paper PMC5760651, “Peptidomimetic blockade of MYB in acute myeloid leukemia” (Nature Communications, 2018):
Non-standard residues stand in square brackets, D forms with d. Residues, ends and D or L forms follow the SMILES beside them.

Experiments:
MV-411 cells [1] = experiment: MYB ChIP-seq; format: cell-based, human; settings: 20 µM, 6 h, 3 biological replicates
Method: ChIP was performed as previously described. Briefly, cells were fixed in 1% formalin in phosphate-buffered saline (PBS) for 10 minutes at room temperature. Glycine (125 mM final concentration) and Tris-HCl pH 8 (100 mM final concentration) were added to the cells and cells were washed twice in ice-cold PBS and resuspended in sodium dodecyl sulfate (SDS) lysis buffer (1% SDS, 10 mM EDTA, 50 mM Tris–HCl, pH 8.1). Lysates were sonicated using the Covaris S220 adaptive focused sonicator to obtain 100–500 bp chromatin fragments (Covaris, Woburn, CA). Lysates containing sheared chromatin fragments were resuspended in 0.01% SDS, 1.1% Triton-X100, 1.2 mM EDTA, 16.7 mM Tris–HCl, pH 8.1,167 mM NaCl. Lysates and antibody-coupled beads were incubated over night at 4 °C. […] Libraries were sequenced on the Illumina HiSeq 2500 instruments, with 30 million 2 × 50 bp paired reads.
For ChIP-seq analysis, reads were quality and adapter trimmed using ‘trim_galore’ before aligning to human genome assembly hg19 with bwa mem using the default parameters. Aligned reads with the same start position and orientation were collapsed to a single read before subsequent analysis. Density profiles were created by extending each read to the average library fragment size and then computing density using the BEDTools suite. Enriched regions were discovered using MACS 2.0 and scored against matched input libraries. […]

MOLM-13 cells = experiment: RNA-seq transcriptome profiling; format: cell-based, human; settings: MOLM13 cells, 20 µM, 6 h
Method: Reads were quality and adapter trimmed using “trim_galore” before aligning to human assembly hg19 with STAR v2.5 using the default parameters. Coverage and post-alignment quality were assessed using the Picard tool CollectRNASeqMetrics (http://broadinstitute.github.io/picard/). Read count tables were created using HTSeq v0.6.1. Normalization and expression dynamics were evaluated with DESeq2 using the default parameters.

CBP KIX domain = molecular target: T1, CBP KIX domain (Mus musculus, UniProt P45481); experiment: Microscale thermophoresis binding of FITC-conjugated peptides to purified recombinant CBP KIX domain; settings: 50 mM sodium phosphate, 150 mM NaCl, 0.01% NP-40, pH 5.5, room temperature, ± standard error mean of three biological replicates
T1 construct: Bacterial expression pGEX-KIX vector encoding the KIX domain of CBP; GST (N, cleaved yes); made in house; host or cells: E. coli BL21(DE3)
T1 sequence (P45481 586-665 limits assumed): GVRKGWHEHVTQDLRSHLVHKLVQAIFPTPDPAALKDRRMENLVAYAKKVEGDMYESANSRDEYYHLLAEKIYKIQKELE
Method: BL21(DE3) cells (Invitrogen) transformed with pGEX-KIX plasmid were induced at 37 °C with isopropyl β-D-1-thiogalactopyranoside for 3 h. Cells were lysed in 50 mM Tris–HCl pH 7.3, 150 mM NaCl, 0.1% Tween-20, 1 mM DTT, 5 mM EDTA, supplemented with protease inhibitors described above and sonicated for ten minutes (15 s on, 15 s off, 40% amplitude) using the Misonix probe sonicator (Qsonica, Newtown, CT). Lysate was cleared by centrifugation for 1 h at 21,800 × g at 4 °C. Cleared lysate was incubated with 4 ml glutathione agarose resin slurry (GoldBio) for 1 h at 4 °C to capture GST-KIX. Resin was washed four times with 50 mM Tris–HCl pH 7.4, 150 mM NaCl. KIX domain was cleaved from GST by incubation of resin-bound GST-KIX with 160 U thrombin (GE Healthcare) overnight at room temperature. Resin was centrifuged at 500 × g for 5 min. […] Cleaved KIX was purified using a linear gradient of 50 mM to 1 M NaCl by cation exchange chromatography using MonoS 5/50 GL column (GE Healthcare). […] Binding of purified recombinant KIX with FITC-conjugated peptides was measured using Monolith NT.115 (NanoTemper Technologies). Assays were conducted in 50 mM sodium phosphate, 150 mM NaCl, 0.01% NP-40, pH 5.5. […] MST measurements were recorded at room temperature for 10 s per capillary using fixed IR-laser power of 80% and LED excitation power of 40–50%.

MV-411 and MOLM-13 cells = experiment: qRT-PCR of BCL2 mRNA expression; format: cell-based, human; settings: 20 μM, 6 h
Method: RNA was isolated using Trizol reagent according to the manufacturer’s instructions (Life Technologies). Complementary DNA was synthesized using the SuperScript III First-Strand Synthesis system according to the manufacturer’s instructions (Invitrogen). Quantitative real-time PCR was performed using the KAPA SYBR FAST PCR polymerase with 20 ng template and 200 nM primers, according to the manufacturer’s instructions (Kapa Biosystems, Wilmington, MA, USA). PCR primers are listed in Supplementary Table 4. Ct values were calculated using ROX normalization using the ViiA 7 software (Applied Biosystems).

[2] = system: MOLM-13, MV-411, ML-2 and HL-60 cells; experiment: Cell viability of AML cell lines; format: cell-based, human; settings: 6 days, 20 μM TG1, TG2 or TG3, 10 and 20 μM MYBMIM, peptide replacement every 48 h, compared to untreated control
Method: (§1) Cells were resuspended and plated at a concentration of 2 × 10^5 cells in 200 μl in 96-well tissue culture plates. Media with peptides was replaced every 48 h. To assess the number of viable cells, cells were resuspended in PBS and 10 µl of suspension was mixed in a 1:1 ratio with 0.4% Trypan Blue (Thermo Fisher) and counted using a hemacytometer (Hausser Scientific, Horsham, PA, USA). To assess viability using an ATP-based assay, cell viability was assessed using the CellTiter-Glo Luminescent Viability assay, according to the manufacturer’s instructions (Promega). Luminescence was recorded using the Infinite M1000Pro plate reader using integration time of 250 ms (Tecan).

MV-411 cells [3] = experiment: Growth and survival of MV-411 cells with ectopic BCL2 (MIG-BCL2) or empty MIG vector; format: cell-based, human; settings: 20 μM, p = 0.003
Method: as §1
The MIG-BCL2 vector was packaged using pUMVc and pCMV-VSVG vectors in HEK 293T cells and the FuGENE 6 transfection reagent, according to manufacturer’s instructions (Promega). Virus supernatant was collected at 48 and 72 h post transfection, pooled, filtered and stored at −80 °C. Cells were transduced with virus particles at a multiplicity of infection of 1 by spin inoculation for 90 min at 3500 rpm at 35 °C in the presence of 8 μg/ml hexadimethrine bromide. Two days after transduction, cells were isolated using fluorescence-activated cell sorting (FACSAria III, BD Bioscience, San Jose, CA, USA).

CC[C@@H](C)[C@@H](NC(=O)[C@@H](CCCCN)NC(=O)[C@@H](CCC(=O)O)NC(=O)[C@@H](CC(C)C)NC(=O)[C@@H](CCC(=O)O)NC(=O)[C@@H](CC(C)C)NC(=O)[C@@H](CC(C)C)NC(=O)CNC(=O)[C@@H](CCSC)NC(=O)[C@@H](CO)NC(=O)[C@H](NC(=O)[C@@H](CCC(=O)O)NC(=O)[C@@H](CC(N)=O)NC(=O)CNC(=O)[C@@H](CC(C)C)NC(=O)[C@@H](CCCCN)NC(C)=O)[C@H](C)O)C(=O)NCC(=O)N[C@H](CCCCN)C(=O)NCC(=O)NCC(=O)N[C@H](CCCNC(=N)N)C(=O)N[C@H](CCCNC(=N)N)C(=O)N[C@H](CCCNC(=N)N)C(=O)N[C@H](CCC(N)=O)C(=O)N[C@H](CCCNC(=N)N)C(=O)N[C@H](CCCNC(=N)N)C(=O)N[C@H](CCCCN)C(=O)N[C@H](CCCCN)C(=O)N[C@H](CCCNC(=N)N)C(=O)NCC(=O)N[C@H](Cc1ccc(O)cc1)C(N)=O [TG3] (Ac-[dK][dL]G[dN][dE][dT][dS][dM]G[dL][dL][dE][dL][dE][dK][dI]G[dK]GG[dR][dR][dR][dQ][dR][dR][dK][dK][dR]G[dY]-NH2)
MYB complexes bound to promoters and enhancers eliminated (MV-411 cells [1]): inactive | Changes in gene expression as compared to mock-treated cells (MOLM-13 cells): no significant changes in gene expression | Kd (CBP KIX domain): 113 ± 36.6 µM | BCL2 expression downregulation (MV-411 and MOLM-13 cells): not | Growth of AML cell lines [2]: inactive | Cell growth and survival of mock-treated and MIG empty vector control transduced MV-411 cells (MV-411 cells [3]): inactive
